Laboratory results as given in PubChem BioAssay (NCI).
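Interpolation was linear, between the two tested concentrations surrounding the appropriate level; five concentrations were tested over 48 hours in 96-well plates. Here, GI50 denotes the concentration required for 50% inhibition of growth. TGI is the concentration that stops growth completely.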

What follows are compounds tested on MDA-MB-468 breast (assay: NCI-60 cell line screen, 48 h).
For CCOC(=O)C1=C(N)Oc2c(sc3c(C)cccc23)C1c1ccc(F)cc1 (configuration not stated), the GI50 was 1.16 µM and the TGI was 8.8 µM. Work on O=C(NNc1cnccn1)c1nc2cc(F)ccc2n2cccc12 yielded a GI50 of 0.419 µM and a TGI of 3.03 µM. Nc1c(C(=O)Nc2ccccc2Cl)sc2nc3c(cc12)C(=O)CCC3 was tested, and the GI50 was 0.324 µM and the TGI was 5.42 µM. Cc1sc2c(c1C)C(c1ccc(Cl)cc1)=N[C@@H](CC(=O)Nc1ccc(OCCOCCOCCOCCNc3cccc4c3C(=O)N(C3CCC(=O)NC3=O)C4=O)cc1)c1nnc(C)n1-2 (some centres not stated) gave a GI50 of less than 0.0201 µM and a TGI greater than 100 µM. For CNC(C)[C@H]1CCC2C3CC=C4C(=O)[C@@H](NC(=O)C=C(C)C)CC[C@]4(C)C3CC[C@@]21C (some centres not stated), the GI50 was 0.939 µM and the TGI was 2.91 µM. With O=C(N[C@@H](Cc1coc2ccccc12)B(O)O)[C@@H]1C[C@H]2CC[C@@H]1O2 the GI50 was 3.38 µM and the TGI was 36 µM. Compound O=C(CCN1CCOCC1)Nc1cccc(-n2cc(-c3ccncc3)c(-c3ccc(Cl)c(O)c3)n2)c1 has a GI50 of 1.25 µM and a TGI of 3.95 µM. O=C1/C(=C/N2N=C(c3ccc4ccccc4c3)CC2c2ccccc2O)SC(=S)N1c1cccnc1 (configuration not stated) was tested, and the GI50 was 1.06 µM and the TGI was 5.33 µM. For Cc1cc(NCCCCNc2ccnc3cc(Cl)ccc23)nc(Nc2ccc(C(=O)N3CCCCC3)cc2)n1, the GI50 was 1.37 µM and the TGI was 3.09 µM. Compound CNCCn1c(=O)c2cc(OC)c(OC)cc2c2cnc3cc4c(cc3c21)OCO4 has a GI50 of less than 0.01 µM and a TGI of less than 0.0177 µM. For COC(=O)[C@]12CC[C@@H](C)[C@H](C)[C@@H]1C1=CC[C@@H]3[C@@]4(C)C(C=O)=C[C@@](C)(COC(=O)c5ccco5)[C@@H]4[C@H](O)C[C@@]3(C)[C@]1(C)CC2, the GI50 was 1.69 µM and the TGI was 5.66 µM. In the case of CC1(C)N=C(N)N=C(N)N1c1cccc(OCCOc2cccc([N+](=O)[O-])c2)c1, the GI50 is reported as 0.463 µM and the TGI is reported as 21.6 µM. COc1cc(OC)c2sc(-c3ccc(-n4cncc4-c4cc(OC)c(OC)c(OC)c4)cc3)nc2c1 gave a GI50 of 3.27 µM and a TGI greater than 100 µM. For Cn1cc(S(=O)(=O)N2CCC3=Cc4c(cnn4-c4ccc(F)cc4)C[C@]3(C(=O)c3cc(C(F)(F)F)ccn3)C2)cn1, the GI50 was 68.8 µM and the TGI was greater than 100 µM. In the case of O=C(NC1CCCCC1)c1ccc(Nc2ncnc3c2cnn3-c2ccccc2)cc1, the GI50 is reported as 21.7 µM and the TGI is reported as greater than 100 µM. Work on NC(N)=N/N=C(\N=Nc1ccccc1)c1ccc(Cl)cc1 yielded a GI50 of 2.12 µM and a TGI of 5.41 µM. With C=C(C)[C@@H]1CC[C@]2(C)[C@H](CC[C@@H]3[C@@H]([C@@](C)(O)CCC=C(C)C)CC[C@]32C)[C@@]1(C)CCC(=O)O the GI50 was 22.4 µM and the TGI was 60.4 µM. In the case of O=C(Nc1ccc(Cl)cc1)Nc1nccs1, the GI50 is reported as 0.398 µM and the TGI is reported as 3.7 µM. COc1ccc(-c2nn(-c3cccc(Cl)c3)cc2-c2nc(N)[nH]c(=O)c2C#N)cc1 showed a GI50 of 2.12 µM and a TGI of 6.43 µM. For Oc1ccc(Oc2cnc3ccccc3n2)cc1, the GI50 was 49.4 µM and the TGI was greater than 100 µM. COc1ccc2c(c1)C(C)Cc1c(ncnc1-n1cnc3ccccc31)N2C (configuration not stated) showed a GI50 of 0.293 µM and a TGI of 10.6 µM. With c1ccc2c(c1)c1ccccc1c1ccccc21 the GI50 was greater than 100 µM and the TGI was greater than 100 µM. COc1ccc(-c2cc(Nc3ccnc(N4CCOCC4)n3)on2)cc1 was tested, and the GI50 was 0.375 µM and the TGI was 2.49 µM. With COc1ccc(-c2noc(N)c2-c2cc(OC)c3c(c2)OCO3)cc1 the GI50 was 0.966 µM and the TGI was 7.47 µM. For NCCCOc1cc(Cl)ccc1NC(=O)c1cc2ccccc2cc1OCCCN, the GI50 was 0.543 µM and the TGI was 1.89 µM. Compound COc1cc(/C=C2\CCC/C(=C\c3ccc(OCC4CO4)c(OC)c3)C2=O)ccc1OCC1CO1 (configuration not stated) has a GI50 of 1.63 µM and a TGI of 4.85 µM. For COc1ccc(-c2ccc(NNC(=O)c3ccc(F)cc3)nn2)cc1OC, the GI50 was 64.3 µM and the TGI was greater than 100 µM. Work on NCCCOc1cc2ccccc2cc1C(=O)NCCCOc1cc2ccccc2cc1C(=O)Nc1ccc(Cl)cc1O yielded a GI50 of 0.238 µM and a TGI of 0.821 µM. For Oc1ccc(N=Nc2nccs2)c(O)c1, the GI50 was 4.76 µM and the TGI was greater than 100 µM. With C=CCn1c(SCC(=O)Nc2ccc(C(=O)/C=C/c3cc(OC)c(OC)c(OC)c3)cc2)nnc1-c1ccc(OC)cc1 the GI50 was 0.654 µM and the TGI was 2.57 µM. With Cn1cc(-c2csc(-c3cn(C)c4ccc(F)cc34)n2)c2cnccc21 the GI50 was 1.86 µM and the TGI was 3.53 µM.
